Laboratory results: patent US20180147296A1, “CARBON MATERIAL DELIVERY SYSTEMS AND METHODS” (The Research Foundation for The State University of New York, priority 2015, published 2018)

What was measured:
HeLa cells [1] = assay: PrestoBlue viability assay, C6 ceramide; type: cell-based; conditions: 8 μg/mL of C6; 24 hrs
Experimental: HeLa cells were seeded in flat-bottomed 96 well plates at a density of 5000 cells/well and were allowed to adhere overnight. Ceramide-loaded nanoparticles (O-GNRs or GNPs) were added to each well at various concentrations ranging from 10-100 μg/mL of nanoparticles. In order to ensure that any observed decrease in viability compared to untreated cells could not be attributed to the loading process, the loading process was repeated with only nanoparticles and incubated them with HeLa cells at the highest concentration used (100 μg/mL). After 24 hours, the media was aspirated and each well was rinsed twice with PBS. […] After 2 hours, the plates were removed and the fluorescence intensity of each well was measured using a Molecular Devices SpectraMax M2e (Sunnyvale, Calif., USA) with an excitation wavelength of 560 nm and an emission wavelength of 590 nm. […] The cell viability is expressed as a percent of the […] with the formula: […]
where Itest is the fluorescence intensity of cells exposed to ceramide-loaded nanoparticles, Icontrol is the fluorescence intensity of […], and Iblank is the fluorescence intensity from empty wells.
In a separate experiment, the efficacy of ceramide-loaded O-GNRs were compared to C6 ceramide without nanoparticles placed directly in the media. […] Viability was assessed with PrestoBlue using identical methods as described above.

HeLa cells [2] = assay: Confocal microscopy of C12 NBD ceramide; type: cell-based; conditions: 2 hours
Experimental: C12 NBD ceramide was loaded onto O-GNRs using the same procedure as C24 and C16 ceramide. HeLa cells were seeded in glass-inset confocal dishes at a density of 7.5×10^4 cells/mL with 2 mL per plate and allowed to adhere overnight. Cells were treated with either 5 μM fluorescent C12 NBD ceramide or an equivalent amount of fluorescent C12 NBD ceramide loaded on O-GNRs for 2 hours and imaged using a Leica TCS SP8 Laser Scanning Confocal Microscope System (Buffalo Grove, Ill., USA). Cells were pretreated with inhibitors of O-GNR uptake Dynasore and Gefitinib, endosome disruptor Desipramine, or no treatment for 30 minutes prior to the addition of ceramide or ceramide-loaded O-GNRs.

[3] = PrestoBlue assay, separate cultures; type: cell-based; conditions: human, separate culture, 80 μM Luc free or loaded, read-out: viability compared to untreated controls
Experimental: (§1) Luc alone (80 μM), 80 μM Luc loaded O-GNR-PEG-DSPE and O-GNR-PEG-DSPE (same weight as used for Luc loading) were incubated with CMV/U251, A1-5/CMV/U251, MCF-7 and CG-4 cells (5×10^3 cells per well in 96 well plates) for 24 hours. Following the incubation period the media was removed and the cells were washed twice with 1×PBS. 100 μL of fresh media was added to each well, as well as 10 μL of PrestoBlue® to each well, and incubated for 4 hours. Fluorescence was measured by Cytofluor fluorescence multiwell plate reader (Infinite M200, Tecan Group Ltd, NC, USA) with excitation at 530 nm, and emission at 580 nm.
(§2) The cell viability in terms of % of unexposed cells is expressed as the percentage of (Ftest−Fblank)/(Fcontrol−Fblank), where Ftest is the fluorescence of the cells exposed to nanoribbon-drug sample, Fcontrol is the fluorescence of the untreated sample and Fblank is the fluorescence of the wells without any cells. The PrestoBlue® reading for all lysed cells was also taken for comparison.

MCF-7 = assay: PrestoBlue assay, separate cultures; type: cell-based; conditions: 80 μM Luc free or loaded; 24 hours
Experimental: as §1, §2

CG-4 = assay: PrestoBlue assay, separate cultures; type: cell-based, rat; conditions: 80 μM Luc free or loaded; 24 hours
Experimental: as §1, §2

[4] = PrestoBlue assay, MCF-7-CMV/U251 co-culture; type: cell-based; conditions: human, read-out: viability compared to untreated controls
Experimental: (§3) MCF-7, CG-4 and CMV/U251 were seeded separately on 12 mm round glass coverslips (Fisherbrand, Fisher Scientific, PA) in 100 mm plates at a density of 2.2×10^6 cells and allowed to grow overnight. For the two separate co-culture condition experiments, one coverslip from each cell line was placed in 6 well plates, for a total of two coverslips per well. These cells were then incubated with Luc alone (80 μM), 80 μM Luc loaded O-GNR-PEG-DSPE or O-GNR-PEG-DSPE for 24 h. After the incubation period, the media was removed and the cells were washed twice with 1×PBS. Each coverslip was then transferred to its own well in 6 well plates containing 3 mL of media and 300 μL of PrestoBlue® reagent. After incubating for 4 h, the fluorescence intensity was recorded using the procedure described above.

[5] = PrestoBlue assay, CG-4-CMV/U251 co-culture; type: cell-based; conditions: read-out: viability compared to untreated controls
Experimental: as §3

A1-5/CMV/U251 = assay: Annexin V/PI staining, flow cytometry; type: cell-based; conditions: 4 hours; for % AV+ / % PI + AV+ / % PI+ / % PI−AV−: A1-5/CMV/U251, free or on GONR
Experimental: (§4) Luc alone and Luc-loaded O-GNR-PEG-DSPEs at different concentrations (5-80 μM) were incubated with CMV/U251, A1-5/CMV/U251 and CG-4 (5×10^5 cells/3 mL in 6-well plates) for 4 hours. Unexposed cells were used as control. Unloaded O-GNR-PEG-DSPEs in amounts equivalent to the loaded nanoparticles were also exposed to all the cell types as delivery agent control. The viability of the cells was analyzed by flow cytometry after Annexin V/PI staining using FACS Calibur Cell Sorter (BD Biosciences, San Jose, Calif.).
(§5) Annexin V (AV) is a 35 KDa phospholipid binding protein with an affinity for phosphotidyl serine. Early apoptotic cells show exposed phosphotidyl serine on their cell surface while it is still intact. PI on the other hand can only enter dead cells or early necrotic cells with compromised membranes. Thus, in flow cytometry AV+/PI+ represents dead cells, AV+/PI− represents cells in early apoptosis, AV−/PI+ represents dead or necrotic cells with compromised membranes, and AV−/PI− represents healthy living cells. […] However, 37% of cells were still living after 4 hours of exposure to O-GNR-PEG-DSPE loaded with 80 μM Luc.

CMV/U251 = assay: Annexin V/PI staining, flow cytometry; type: cell-based; conditions: 4 hours; for % AV+ / % PI + AV+ / % PI+ / % PI−AV−: CMV/U251, free or on GONR
Experimental: as §4, §5

HeLa cells [6] = assay: Live-cell confocal microscopy of NBD-ceramide; type: cell-based; conditions: 40 μg/mL loaded O-GNRs or equal NBD-ceramide in ethanol; one hour
Experimental: In order to visualize the uptake of ceramide-loaded nanoparticles into cells, we loaded O-GNRs with C6 ceramide conjugated to 4-Chloro-7-nitrobenzofurazan (NBD-ceramide). HeLa cells were seeded in glass-inset confocal dishes at a density of 7.5×10^4 cells/mL with 2 mL per plate and allowed to adhere overnight. The following day, cells were placed in a LiveCell™ stage top incubation platform (Pathology Devices Inc., Westminster, Md., USA) and NBD-ceramide-loaded O-GNRs were added to these plates at a concentration of 40 μg/mL. As a control, cells were also incubated with an equivalent amount of NBD-ceramide in ethanol in a separate experiment. The cells were then imaged using a Leica TCS SP8 Laser Scanning Confocal Microscope System (Buffalo Grove, Ill., USA) over a period of one hour at two minute intervals.

In the case of `CCCCCCCCCCCCC/C=C/[C@@H](O)[C@H](CO)NC(=O)CCCCC` [C6 ceramide, C6-Ceramide], the “HeLa cell viability greater than lysed cells” value (HeLa cells [1]) is reported as 55.8%.

With `CCCCCCCCCCCCC/C=C/[C@@H](O)[C@H](CO)NC(=O)CCCCCCCCCCCNc1ccc([N+](=O)[O-])c2nonc12` [C12 NBD ceramide] the “fluorescence compared with cells not treated with inhibitor” value (HeLa cells [2]; pretreated with Dynasore 30 minutes) was “no difference”, the “fluorescence compared with cells not treated with inhibitor” value (HeLa cells [2]; pretreated with Gefitinib 30 minutes) was “no difference” and the “endosome localization compared with cells not treated with desipramine” value (HeLa cells [2]; pretreated with desipramine 30 minutes) was “significantly less endosome localization”.

With `CCN(CC)CCNc1ccc(C)c2sc3ccccc3c(=O)c12` [Lucanthone] the viability at 24 h, 80 μM ([3]; A1-5/CMV/U251 cells) was about 30%, the viability at 24 h, 80 μM ([3]; CMV/U251 cells) was about 40% and the “toxicity (PrestoBlue)” value (MCF-7) was “toxic”. For the same compound, the “toxicity (PrestoBlue)” value (CG-4) was “toxic”, the viability at 24 h, 80 μM ([4]; CMV/U251 cells on coverslips, co-cultured with MCF-7 cells, CMV/U251 in co-culture with MCF-7, 80 μM Luc free or loaded, or carrier alone) was about 28% and the viability at 24 h, 80 μM ([4]; MCF-7 cells on coverslips, co-cultured with CMV/U251 cells, MCF-7 in co-culture with CMV/U251, 80 μM Luc free or loaded, or carrier alone) was about 36%. For the same compound, the viability at 24 h, 80 μM ([5]; human, CMV/U251 cells on coverslips, co-cultured with CG-4 cells, CMV/U251 in co-culture with CG-4, 80 μM Luc free or loaded) was about 15%, the viability at 24 h, 80 μM ([5]; rat, CG-4 cells on coverslips, co-cultured with CMV/U251 cells, CG-4 in co-culture with CMV/U251, 80 μM Luc free or loaded) was about 30% and the cell death (A1-5/CMV/U251; 40 μM free Luc) was 100%. For the same compound, the “% AV+” value (A1-5/CMV/U251; 5 μM lucanthone) was 0%, the “% PI + AV+” value (A1-5/CMV/U251; 5 μM lucanthone) was 0% and the “% PI+” value (A1-5/CMV/U251; 5 μM lucanthone) was 76%. For the same compound, the “% PI−AV−” value (A1-5/CMV/U251; 5 μM lucanthone) was 24%, the “% AV+” value (A1-5/CMV/U251; 10 μM lucanthone) was 0% and the “% PI + AV+” value (A1-5/CMV/U251; 10 μM lucanthone) was 0%. For the same compound, the “% PI+” value (A1-5/CMV/U251; 10 μM lucanthone) was 92%, the “% PI−AV−” value (A1-5/CMV/U251; 10 μM lucanthone) was 8% and the “% AV+” value (A1-5/CMV/U251; 20 μM lucanthone) was 0%. For the same compound, the “% PI + AV+” value (A1-5/CMV/U251; 20 μM lucanthone) was 0%, the “% PI+” value (A1-5/CMV/U251; 20 μM lucanthone) was 98% and the “% PI−AV−” value (A1-5/CMV/U251; 20 μM lucanthone) was 2%. For the same compound, the “% AV+” value (A1-5/CMV/U251; 40 μM lucanthone) was 0%, the “% PI + AV+” value (A1-5/CMV/U251; 40 μM lucanthone) was 0% and the “% PI+” value (A1-5/CMV/U251; 40 μM lucanthone) was 100%. The “% PI−AV−” value (A1-5/CMV/U251; 40 μM lucanthone) was 0%, the “% AV+” value (A1-5/CMV/U251; 80 μM lucanthone) was 0% and the “% PI + AV+” value (A1-5/CMV/U251; 80 μM lucanthone) was 0%. The “% PI+” value (A1-5/CMV/U251; 80 μM lucanthone) was 100%, the “% PI−AV−” value (A1-5/CMV/U251; 80 μM lucanthone) was 0% and the cell death (CMV/U251; 80 μM free Luc) was 100%. For the same compound, the “% AV+” value (CMV/U251; 5 μM lucanthone) was 0%, the “% PI + AV+” value (CMV/U251; 5 μM lucanthone) was 17% and the “% PI+” value (CMV/U251; 5 μM lucanthone) was 78%. For the same compound, the “% PI−AV−” value (CMV/U251; 5 μM lucanthone) was 20%, the “% AV+” value (CMV/U251; 10 μM lucanthone) was 0% and the “% PI + AV+” value (CMV/U251; 10 μM lucanthone) was 0%. The “% PI+” value (CMV/U251; 10 μM lucanthone) was 95%, the “% PI−AV−” value (CMV/U251; 10 μM lucanthone) was 5% and the “% AV+” value (CMV/U251; 20 μM lucanthone) was 0%. The “% PI + AV+” value (CMV/U251; 20 μM lucanthone) was 0%, the “% PI+” value (CMV/U251; 20 μM lucanthone) was 97% and the “% PI−AV−” value (CMV/U251; 20 μM lucanthone) was 3%. The “% AV+” value (CMV/U251; 40 μM lucanthone) was 0%, the “% PI + AV+” value (CMV/U251; 40 μM lucanthone) was 0% and the “% PI+” value (CMV/U251; 40 μM lucanthone) was 97%. The “% PI−AV−” value (CMV/U251; 40 μM lucanthone) was 3%, the “% AV+” value (CMV/U251; 80 μM lucanthone) was 5% and the “% PI + AV+” value (CMV/U251; 80 μM lucanthone) was 0%. For the same compound, the “% PI+” value (CMV/U251; 80 μM lucanthone) was 95%, the “% PI−AV−” value (CMV/U251; 80 μM lucanthone) was 0% and the “% PI−AV−” value (CMV/U251; 80 μM lucanthone, listed as Luc) was “no healthy living cells remaining”. The “nature of cell death (dead cells PI+/AV−)” value (CMV/U251; CMV/U251 and A1-5/CMV/U251, 5-80 μM) was “necrotic”.

With `CCCCCCCCCCCCC/C=C/C(O)C(CO)NC(=O)CCCCCNc1ccc([N+](=O)[O-])c2nonc12` [NBD ceramide, C6 N-[6-[(7-nitro-2-1,3-benzoxadiazol-4-yl)amino]hexanoyl]-D-erythro-sphingosine] the “uptake of NBD ceramide into cells (fluorescence)” value (HeLa cells [6]) was “rapid uptake”.
